What follows are compounds tested against Recombinant human CD33 protein (Homo sapiens (Human), UniProt P20138) (assay: CD33 competitive binding assay for HTS drug screen (fluorescent multivalent sialic acid probe)).
Description: This is a competitive binding assay that uses recombinant CD33 immobilized to a plate and a fluorescently-labeled multivalent sialic acid analog as a probe. Binding of drug to the site on CD33 to which sialic acid binds is detected by reduced binding of the fluorescent probe. Recombinant human CD33 protein (for example Acro Biosystems cat #CD3-H5257) was added at a concentration of 10 μg/ml in 20 mM acetate buffer (pH5.5) to a black plastic plate (Corning 4510) and allowed to incubate overnight at 4° C. The next day, the wells were washed 3 times with PBS containing 0.02% Tween-20. This was followed by a 30-minute incubation with PBS containing 0.2% Tween-20 and 0.5% BSA to block non-specific binding to the well. This buffer is removed and replaced with 10 μl of the same buffer, which is also used as the assay buffer. The fluorescent multivalent sialic acid probe was prepared as a 4× concentration as follows. A biotinylated sialic acid analog A-375 was mixed with biotin-4-Fluorescein isothiocyanate (biotin-4-FITC) at a 3:1 molar ratio with final concentrations (4× stock) of 60 μM A-375 and 20 μM biotin-4-FITC. After these were mixed, 20 μM of neutravidin was added, which should form complexes consisting of neutravidin, fluorescein and sialic acid with an average complex consisting of 1 neutravidin, 1 FITC and 3 sialic acid analogs. The multimerization of the sialic acid analog is critical to the assay and improves the affinity of the sialic acid analog several orders of magnitude. A test compound, for example A-001, is added at 5 μl to the 10 μl assay buffer already in the well. After a brief incubation, 5 μl of the 4× stock solution of sialic acid complexes was added. The final concentration of the complexes was therefore 5 μM neutravidin, 15 μM A-375 and 5 μM FITC. The plate was incubated at room temperature for 30 mins and then washed with PBS containing 0.2% Tween-20. Binding of the sialic acid complex is very stable, with an off-rate of several days. Bound complex was then detected using a standard plate reader to quantify FITC fluorescence.

Sequence of Recombinant human CD33 protein (P20138 18-259): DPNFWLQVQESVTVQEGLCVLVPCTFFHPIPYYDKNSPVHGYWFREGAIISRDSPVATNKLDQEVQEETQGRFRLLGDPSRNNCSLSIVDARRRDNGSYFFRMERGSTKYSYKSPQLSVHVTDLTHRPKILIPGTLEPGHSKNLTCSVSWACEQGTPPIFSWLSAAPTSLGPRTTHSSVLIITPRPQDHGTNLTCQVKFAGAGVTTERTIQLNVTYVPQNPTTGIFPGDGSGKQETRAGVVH

Row | Structure (SMILES) | EC50
1 | CC(=O)N[C@H]1[C@H]([C@H](O)[C@H](O)CNC(=O)c2cc(C)c(O)c(C)c2)O[C@@](CCN2CCOC[C@@]23CCN(C(=O)COCC(F)(F)F)C3)(C(=O)O)C[C@@H]1O [A-088] | 1950 nM
2 | CC(=O)N[C@H]1[C@H]([C@H](O)[C@H](O)CNC(=O)c2cc(C)c(O)c(C)c2)O[C@@](CCN2CCOC[C@@]23CCN(C(=O)C(c2ccccc2)C2CCCCC2)C3)(C(=O)O)C[C@@H]1O (stereo partly drawn) [A-089] | 291 nM
3 | CC(=O)N[C@H]1[C@H]([C@H](O)[C@H](O)CNC(=O)c2cc(C)c(O)c(C)c2)O[C@@](CCN2CCOC[C@@]23CCN(C(=O)COC(C)(C)C)C3)(C(=O)O)C[C@@H]1O [A-090] | 3120 nM
4 | CC(=O)N[C@H]1[C@H]([C@H](O)[C@H](O)CNC(=O)c2cc(C)c(O)c(C)c2)O[C@@](CCN2CCOC[C@@]23CCN(C(=O)C2CCOCC2)C3)(C(=O)O)C[C@@H]1O [A-091] | 452 nM
5 | CC(=O)N[C@H]1[C@H]([C@H](O)[C@H](O)CNC(=O)c2cc(C)c(O)c(C)c2)O[C@@](CCN2CCOC[C@@]23CCN(C(=O)COC2CCCC2)C3)(C(=O)O)C[C@@H]1O [A-092] | 2050 nM
6 | CC(=O)N[C@H]1[C@H]([C@H](O)[C@H](O)CNC(=O)c2cc(C)c(O)c(C)c2)O[C@@](CCN2CCOC[C@@]23CCN(C(=O)c2ccco2)C3)(C(=O)O)C[C@@H]1O [A-093] | 892 nM
7 | CC(=O)N[C@H]1[C@H]([C@H](O)[C@H](O)CNC(=O)c2cc(C)c(O)c(C)c2)O[C@@](CCN2CCOC[C@@]23CCN(C(=O)c2ccc4[nH]cnc4c2)C3)(C(=O)O)C[C@@H]1O [A-094] | 2330 nM
8 | CC(=O)N[C@H]1[C@H]([C@H](O)[C@H](O)CNC(=O)c2cc(C)c(O)c(C)c2)O[C@@](CCN2CCOC[C@@]23CCN(C(=O)c2ccc4[nH]c(C(C)O)nc4c2)C3)(C(=O)O)C[C@@H]1O (stereo partly drawn) [A-095] | 1690 nM
9 | CC(=O)N[C@H]1[C@H]([C@H](O)[C@H](O)CNC(=O)c2cc(C)c(O)c(C)c2)O[C@@](CCN2CCOC[C@@]23CCN(Cc2cccc(C)c2)C3)(C(=O)O)C[C@@H]1O [A-104] | > 10000 nM
10 | CC(=O)N[C@H]1[C@H]([C@H](O)[C@H](O)CNC(=O)c2cc(C)c(O)c(C)c2)O[C@@](CCN2CCN(C)C[C@@]23CCN(C(=O)NC(C)(C)C)C3)(C(=O)O)C[C@@H]1O [A-105] | 8 nM
11 | CC(=O)N[C@H]1[C@H]([C@H](O)[C@H](O)CNC(=O)c2cc(C)c(O)c(C)c2)O[C@@](CCN2CCN(C)C[C@]23CCN(C(=O)NC(C)(C)C)C3)(C(=O)O)C[C@@H]1O [A-106] | 1950 nM
12 | CC(=O)N[C@H]1[C@H]([C@H](O)[C@H](O)CNC(=O)c2cc(C)c(O)c(C)c2)O[C@@](CCN2CCNC[C@]23CCN(C(=O)NC(C)(C)C)C3)(C(=O)O)C[C@@H]1O [A-107] | 379 nM
13 | CC(=O)N[C@H]1[C@H]([C@H](O)[C@H](O)CNC(=O)c2cc(C)c(O)c(C)c2)O[C@@](CCN2CCNC[C@@]23CCN(C(=O)NC(C)(C)C)C3)(C(=O)O)C[C@@H]1O [A-108] | 26 nM
14 | CC(=O)N[C@H]1[C@H]([C@H](O)[C@H](O)CNC(=O)c2cc(C)c3[nH]ncc3c2)O[C@@](CCN2CCOC[C@@]23CCN(C(=O)OC(C)(C)C)C3)(C(=O)O)C[C@@H]1O [A-130] | 9 nM
15 | CC(=O)N[C@H]1[C@H]([C@H](O)[C@H](O)CNC(=O)c2ccc3sc(C)nc3c2)O[C@@](CCN2CCOC[C@@]23CCN(C(=O)OC(C)(C)C)C3)(C(=O)O)C[C@@H]1O [A-131] | 24 nM
16 | CC(=O)N[C@H]1[C@H]([C@H](O)[C@H](O)CNC(=O)/C=C/c2cn[nH]c2)O[C@@](CCN2CCOC[C@@]23CCN(C(=O)OC(C)(C)C)C3)(C(=O)O)C[C@@H]1O [A-176] | 650 nM
17 | CC(=O)N[C@H]1[C@H]([C@H](O)[C@H](O)CNC(=O)c2cc(C)c(O)c(C)c2)O[C@@](CN2CCCC3(CCN(C(=O)OC(C)(C)C)C3)C2)(C(=O)O)C[C@@H]1O (stereo partly drawn) [A-193] | 90 nM
18 | CC(=O)N[C@H]1[C@H]([C@H](O)[C@H](O)CNC(=O)c2cc(C)c(O)c(C)c2)O[C@@](C/C=C/C2(O)CCN(C(=O)OC(C)(C)C)C2)(C(=O)O)C[C@@H]1O (stereo partly drawn) [A-197] | 181 nM
19 | CC(=O)N[C@H]1[C@H]([C@H](O)[C@H](O)CNC(=O)c2cc(C)c(O)c(C)c2)O[C@@](C/C=C/C2(F)CCN(C(=O)OC(C)(C)C)C2)(C(=O)O)C[C@@H]1O (stereo partly drawn) [A-198] | 148 nM
20 | CC(=O)N[C@H]1[C@H]([C@H](O)[C@H](O)CNC(=O)c2cc(C)c(O)c(C)c2)O[C@@](C/C=C/C2CCN(c3cc(N(C)C)ccn3)C2)(C(=O)O)C[C@@H]1O (stereo partly drawn) [A-199] | 9860 nM
21 | Cc1cc(C(=O)NC[C@@H](O)[C@@H](O)[C@@H]2O[C@@](CCN3CCOC[C@@]34CCN(C(=O)OC(C)(C)C)C4)(C(=O)O)C[C@H](O)[C@H]2N(C)C)cc(C)c1O [A-203] | > 5000 nM
22 | Cc1cc(C(=O)NC[C@@H](O)C[C@H]2CCC[C@](CCN3CCOC[C@@]34CCN(C(=O)OC(C)(C)C)C4)(C(=O)O)O2)cc(C)c1O [A-208] | > 20000 nM
23 | Cc1cc(C(=O)NC[C@@H](O)C[C@H]2CC[C@H](C)[C@](CCN3CCOC[C@@]34CCN(C(=O)OC(C)(C)C)C4)(C(=O)O)O2)cc2cc[nH]c12 [A-216] | 12200 nM
24 | Cc1cc(C(=O)NC[C@@H](O)C[C@H]2CC[C@@H](C)[C@](CCN3CCOC[C@@]34CCN(C(=O)OC(C)(C)C)C4)(C(=O)O)O2)cc2cc[nH]c12 [A-217] | > 20000 nM
25 | Cc1cc(C(=O)NC[C@H](O)C[C@H]2CC[C@H](C)[C@](CCN3CCOC[C@@]34CCN(C(=O)OC(C)(C)C)C4)(C(=O)O)O2)cc2cc[nH]c12 [A-218] | > 20000 nM
26 | Cc1cc(C(=O)NC[C@H](O)C[C@H]2CC[C@@H](C)[C@](CCN3CCOC[C@@]34CCN(C(=O)OC(C)(C)C)C4)(C(=O)O)O2)cc2cc[nH]c12 [A-219] | > 20000 nM
27 | CC(=O)N[C@H]1[C@H]([C@H](O)[C@H](O)CNC(=O)c2cc(C)c(O)c(C)c2)O[C@@](C[C@@H]2COC[C@@]3(CCN(C(=O)OC(C)(C)C)C3)N2)(C(=O)O)C[C@@H]1O [A-226, (2R,4S,5R,6R)-5-acetamido-2-(((5S,7R)-2-(tert-butoxycarbonyl)-9-oxa-2,6-diazaspiro[4.5]decan-7-yl)methyl)-6-((1R,2R)-1,2-dihydroxy-3-(4-hydroxy-3,5-dimethylbenzamido)propyl)-4-hydroxytetrahydro-2H-pyran-2-carboxylic acid] | 3870 nM
28 | C#C[C@H](C)C(=O)C(=O)Nc1cccc([C@@H]2OC(C)(C)OC2C[C@]2(C(=O)O)C[C@H](O)[C@@H](NC(C)=O)[C@H]([C@H](O)[C@H](O)CNC(=O)c3cc(C)c(O)c(C)c3)O2)c1 (stereo partly drawn) [A-306] | 5620 nM
29 | CC(=O)N[C@H]1[C@H]([C@H](O)[C@H](O)CNC(=O)c2cc(C)c(O)c(C)c2)O[C@@](CC2OC(C)(C)O[C@H]2c2ccc3c(c2)N(C(=O)OC(C)(C)C)CC3)(C(=O)O)C[C@@H]1O (stereo partly drawn) [A-308] | 2940 nM
30 | Cc1cc2cc(C)c1OCCCC[C@H](NC(=O)C1CCCOC1)c1cccc(c1)/C=C/C[C@]1(C(=O)O)C[C@H](O)[C@@H](NC(=O)Cn3cc(C4CCCCC4)nn3)[C@@H](O1)[C@H](O)[C@H](O)CNC2=O (stereo partly drawn) [A-350] | 13300 nM

Reference: patent US20250313574A1, “SIALIC ACID DERIVATIVES AND METHODS OF USING SAME” (EISAI R&D MANAGEMENT CO., LTD., priority 2022, published 2025)
